Experimental data published in the METLIN SMRT retention time set (Domingo-Almenara et al. 2019).

Experiment: gradient 5% acetonitrile 3 min, to 50% in 2 min, to 85% in 15 min, held 3 min, 100 µL/min
Settings: column: Zorbax Extend-C18 2.1 x 50 mm; eluents: water / acetonitrile, 0.1% formic acid
Outline: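 Each retention time is based on an adduct peak selected computationally and verified by manual inspection. Measurements used HPLC–quadrupole time-of-flight mass spectrometry in positive and negative ionization mode on mixtures of ~100 pure standards. Chromatography ran on a Zorbax Extend-C18 column (2.1 × 50 mm, 1.8 μm) at 100 μL/min with water and acetonitrile, each containing 0.1% formic acid, and dead and dwell volumes of 40 μL and 900 μL.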
Work on `Cc1cnc(-c2ccccc2)n1C1CCN(S(=O)(=O)c2ccc(C#N)cc2)C1` (centres undefined) yielded an RP-LC retention time of 680 s. `N#Cc1ccccc1-c1cc(-c2ccccn2)cn(-c2ccccc2)c1=O` gave an RP-LC retention time of 941 s. For `O=C1COc2ccc(S(=O)(=O)N3CCC(C(=O)NCc4ccco4)CC3)cc2N1`, the RP-LC retention time was 697 s. `COc1cccc(CNC(=O)Nc2ccc(-c3nc(-c4ccc(C)cc4C)co3)cc2)c1` gave an RP-LC retention time of 1170 s. `COc1ccc(CC(=O)N2CCN(c3cc(C)n4c(C)nnc4n3)CC2)cc1OC` gave an RP-LC retention time of 578 s. For `Cc1ccc(C(=O)N2[C@H]3CC[C@@H]2c2cnc(-c4ccc(F)cc4)nc2C3)cn1`, the RP-LC retention time was 735 s. For `Clc1ccc(-c2cc3c(N4CCN(c5ccccn5)CC4)nccn3n2)cc1`, the RP-LC retention time was 727 s. `COc1ccccc1N1CCN(Cc2nc3nc(C)cc(N4CCOCC4)n3n2)CC1` showed an RP-LC retention time of 602 s. With `CCn1cc(CN2CCC(C(=O)NCC3CCCCC3)CC2)c2cc(OC)ccc21` the RP-LC retention time was 736 s. Molecule `CC(Cc1ccco1)NC(=O)CCCn1c(=O)c2cccn2c2ccc(Br)cc21` (centres undefined) has an RP-LC retention time of 924 s. With `COc1cccc(COc2cn(C)c(C(=O)N3CCN(c4ncccn4)CC3)cc2=O)c1` the RP-LC retention time was 605 s. Work on `Cc1ccc(Cn2c(CN3CCC(C(=O)NC4CC4)CC3)cc3ccccc32)cc1` yielded an RP-LC retention time of 716 s. `O=C(c1ccc(Cl)s1)N1CCN(CC(O)c2cccs2)CC1` (centres undefined) showed an RP-LC retention time of 572 s. In the case of `O=c1n(Cc2ccccc2F)nc2c(S(=O)(=O)N3CCOCC3)cccn12`, the RP-LC retention time is reported as 745 s. Work on `CCc1noc(NC(C)=O)c1-c1ccc(OC)c(S(=O)(=O)Nc2cc(Cl)ccc2C)c1` yielded an RP-LC retention time of 870 s. `Cn1cc(C(=O)Nc2ccc(N3CCOCC3)cc2)c2cccnc21` showed an RP-LC retention time of 658 s. `CN(C)C(=O)CCc1ccc2c(c1)CN(C(=O)C1COc3ccccc3O1)CCO2` (centres undefined) showed an RP-LC retention time of 790 s. Molecule `CCC(C)NC(=O)Cn1cccc(-c2nc(-c3ccc(OC)c(OC)c3)no2)c1=O` (centres undefined) has an RP-LC retention time of 714 s. Molecule `COCCc1nnc(NC(=O)c2cn(C)nc2OC)o1` has an RP-LC retention time of 558 s. For `CC1=C(c2ccc(C)cc2)S(=O)(=O)N=C1N1CCC(NC(=O)c2cc(C)n(C)n2)CC1`, the RP-LC retention time was 769 s. `C[C@@H]1CC[C@H]2[C@H](C)[C@H]3CC[C@@]4(O)[C@@H]5CC(=O)[C@H]6CC(=O)CC[C@]6(C)[C@H]5C[C@H]4[C@@H]3CN2C1` gave an RP-LC retention time of 636 s. In the case of `COc1ccccc1CNC(=O)Cn1c(N)nc(C)cc1=O`, the RP-LC retention time is reported as 574 s. `Cc1ccc(-c2noc(CC(=O)NC(C)c3ccc(C)cc3C)n2)cc1` (centres undefined) showed an RP-LC retention time of 1080 s. In the case of `Cc1ccc(-c2csc3c(=O)n(CC(=O)NC4CCCC4)cnc23)cc1`, the RP-LC retention time is reported as 912 s. Molecule `Cc1cc(C)cc(C(=O)NCc2ccc3c(c2)CCCN3C(=O)C2CCC2)c1` has an RP-LC retention time of 981 s. `Cc1ccc(-c2ccc3nn(Cc4nc(-c5cccc(Br)c5)no4)c(=O)n3n2)cc1` gave an RP-LC retention time of 1070 s. `CCCn1cc(CCNC(=O)Nc2ccccc2C)c2cccnc21` gave an RP-LC retention time of 717 s. `CC(=O)c1ccc(N2CCN(C(=O)Cn3ccc4ccc(-c5nnc(C)o5)cc43)CC2)cc1` showed an RP-LC retention time of 764 s. `Cc1cnn(Cc2cc(C(=O)N3C[C@@H](CO)[C@H](N(C)C)C3)no2)c1` showed an RP-LC retention time of 566 s. With `Cc1nnc2ccc(N3CCC(C(=O)NCCCOC(C)C)CC3)nn12` the RP-LC retention time was 643 s. Work on `COc1cc(NC(=O)C2CCN(c3nccnc3Sc3ccccc3)CC2)cc(OC)c1OC` yielded an RP-LC retention time of 984 s. Molecule `CC(C)n1c(-c2cccc(C(=O)N3CCC4(CC3)OCCO4)c2)nc2cccnc21` has an RP-LC retention time of 693 s. `COC1CCC12CCN(C(=O)c1ccc(Cc3c(C)n[nH]c3C)o1)CC2` (centres undefined) gave an RP-LC retention time of 656 s. Molecule `COc1cc(O)ccc1-c1nc2ccc(Br)cn2c1Nc1ccccc1C` has an RP-LC retention time of 736 s. Molecule `CCc1nc2cc3c(cc2n1CC(=O)Nc1cccc(OC)c1)OCCO3` has an RP-LC retention time of 660 s. Molecule `Cc1ccc(CNC(=O)C2(C)CCCN(C(=O)Nc3cccc(Cl)c3)C2)cc1` (centres undefined) has an RP-LC retention time of 1040 s. For `Cc1oc(CNC(=O)Nc2ccccc2Cl)nc1C(=O)N1CCCC1`, the RP-LC retention time was 680 s. `Cc1cc(C)n(-c2cc(Nc3ccccc3)ncn2)n1` showed an RP-LC retention time of 1010 s. `CC1=C(c2ccccc2)S(=O)(=O)N=C1N1CCCN(C(=O)c2ccc(F)c(F)c2)CC1` gave an RP-LC retention time of 900 s. Molecule `CCNC(=O)N1CCc2c(c(-c3nc(-c4ccccc4)no3)nn2C)C1` has an RP-LC retention time of 787 s. With `O=C(c1ccc2ccnc(N3CCN(c4ccc(F)cc4)CC3)c2c1)N1CCC2(CC1)OCCO2` the RP-LC retention time was 724 s. Work on `CCCNS(=O)(=O)c1cc(-c2c(CC)noc2NC(C)=O)ccc1OC` yielded an RP-LC retention time of 774 s. For `Cc1cc(C)cc(NC(=O)C2CCN(S(=O)(=O)c3cc(C(=O)N4CCCC4)n(C)c3)CC2)c1`, the RP-LC retention time was 843 s. Molecule `COc1ccc(OC)c(NC(=O)c2[nH]c(C)c(S(=O)(=O)N3CCCCC3)c2C)c1` has an RP-LC retention time of 1020 s. For `N#CCCN1CCN(c2ccc(NC(=O)c3ccc(Br)cc3)c(C(=O)O)c2)CC1`, the RP-LC retention time was 678 s. Work on `COc1cccc(OC)c1OCC(O)CN1CCN(c2ccccc2)CC1` (centres undefined) yielded an RP-LC retention time of 668 s. With `COC(=O)c1cc(OCC(=O)Nc2ccc3c(c2)OCO3)c2cc(Cl)ccc2n1` the RP-LC retention time was 863 s. For `CC(C)CN1C(=O)c2cccn2CC1C(=O)N1CCOCC1` (centres undefined), the RP-LC retention time was 624 s. For `O=C(CCC1CCN(c2cc(NC3CC3)ncn2)CC1)NCc1ccc(F)c(Cl)c1`, the RP-LC retention time was 712 s. Work on `Cc1ccccc1NC(=O)Cn1c(C)nc2onc(C)c2c1=O` yielded an RP-LC retention time of 738 s. Work on `O=C1CC(c2noc(-c3cccc(OC(F)(F)F)c3)n2)CN1c1ccc(F)c(Cl)c1` (centres undefined) yielded an RP-LC retention time of 1210 s. `CCn1ccc2c(cc(C(=O)Nc3ccc(Br)cc3C)n2C)c1=O` showed an RP-LC retention time of 832 s. Work on `Cc1nnc(-c2ccc3ccn(CC(=O)NC4CCCCCC4)c3c2)o1` yielded an RP-LC retention time of 813 s. `O=c1c2oc3ccccc3c2ncn1Cc1nc(-c2ccc(F)cc2)no1` gave an RP-LC retention time of 945 s. For `CCn1nccc1C(=O)N1c2ccccc2CC1c1nnc(C2CC2)o1` (centres undefined), the RP-LC retention time was 755 s. Work on `Cc1ccc2nc(NC(=O)C3CCN(C(=O)C4Sc5ccccc5NC4=O)CC3)sc2c1` (centres undefined) yielded an RP-LC retention time of 838 s. For `CCOC(=O)c1cnc2nc(C)ccc2c1Nc1ccccc1`, the RP-LC retention time was 673 s. Work on `CCN1C(=O)COc2ccc(-c3noc(Cc4cccc(OC)c4)n3)cc21` yielded an RP-LC retention time of 1000 s. Work on `COCc1ncc(C)n1CC1CCN(Cc2sccc2C)CC1` yielded an RP-LC retention time of 534 s. Molecule `COc1cc(C(=O)Nc2nc3ccc4nc(SC)sc4c3s2)cc(OC)c1OC` has an RP-LC retention time of 1080 s. In the case of `Cn1nc(C(=O)N2CCOCC2)c2c1CCN(C(=O)Nc1ccccc1Cl)C2`, the RP-LC retention time is reported as 674 s. For `Cc1ccc(C)c(S(=O)(=O)NCC2CN(C)CC23CCCCC3)c1` (centres undefined), the RP-LC retention time was 704 s. In the case of `CC(C)OCCCNC(=O)C1CCN(c2nc3cccnc3s2)CC1`, the RP-LC retention time is reported as 659 s. With `CCc1ccccc1NS(=O)(=O)c1cc(-c2c(CC)noc2NC(C)=O)ccc1OC` the RP-LC retention time was 838 s. `CCOC(=O)c1ccccc1NC(=O)CSc1nnc2c3cc(-c4ccc(F)cc4)nn3ccn12` showed an RP-LC retention time of 1030 s. `COc1cccc(CNC(=O)C2CCN(C(=O)c3n[nH]c4ccccc34)CC2)c1` showed an RP-LC retention time of 641 s. For `O=C(c1ccc(OCC2CCN(C(=O)c3cccs3)CC2)cc1)N1CCOCC1`, the RP-LC retention time was 747 s. In the case of `CCOC(=O)c1ccc(NC(=O)C2C(=O)N(C)C3(C)CC2c2ccccc2O3)cc1` (centres undefined), the RP-LC retention time is reported as 1000 s. In the case of `Cc1nc(C)c(C(=O)NCC23CCC=C2N(C)C(=O)CC3)s1` (centres undefined), the RP-LC retention time is reported as 651 s. Work on `CCc1cc(C(=O)Nc2ccc(F)cc2)nc2ccnn12` yielded an RP-LC retention time of 997 s. `O=C(Nc1ccccc1)c1ccc(=O)n(CCN2CCOCC2)c1` gave an RP-LC retention time of 590 s. `Cc1cc(=O)n(CC(=O)Nc2ccc3c(c2)OCO3)c(N2CCCCC2)n1` gave an RP-LC retention time of 666 s. In the case of `COc1cccc2cc(C(=O)Nc3nc4c(s3)CN(S(=O)(=O)C3CC3)CC4)oc12`, the RP-LC retention time is reported as 811 s. `CNC(=O)[C@@H]1C[C@H](Oc2cccnc2)CN1C(=O)C1CC=CC1` showed an RP-LC retention time of 554 s. With `O=C(CCSCc1cnn(-c2ccccc2)c1-n1cccc1)N1CCN(c2ccccn2)CC1` the RP-LC retention time was 707 s. `CC(C)Cn1c(=O)c(N2CCN(C(=O)c3ccco3)CC2)nc2ccncc21` gave an RP-LC retention time of 555 s. Molecule `COc1cc(Nc2nc(-c3nnn(-c4ccc(F)cc4)c3C)ns2)cc(OC)c1` has an RP-LC retention time of 990 s. For `O=C(Nc1cc(-c2ccncc2)no1)c1ccccc1`, the RP-LC retention time was 663 s. Work on `Cc1nn(C)cc1S(=O)(=O)N(Cc1ccccc1)c1ccccc1` yielded an RP-LC retention time of 861 s. In the case of `O=C(c1cccs1)N1CCC(c2nnc(-c3ccc(F)cc3)o2)CC1`, the RP-LC retention time is reported as 733 s. `COc1ccccc1NC(=O)N1CCc2nc(-c3ccc(Cl)cc3)ncc2C1` showed an RP-LC retention time of 948 s. In the case of `O=C(c1ccco1)N1CCCN(c2ccc(=O)n(-c3ccccc3)n2)CC1`, the RP-LC retention time is reported as 684 s. With `Fc1ccc(-c2nnc(Cc3nc(-c4ccccc4)no3)o2)cc1` the RP-LC retention time was 992 s. `CC(=O)Nc1cc(-c2nc(-c3ccc4oc(C)nc4c3)no2)ccc1C` showed an RP-LC retention time of 803 s. `Cc1cccc(NC(=O)C2CCc3sc(C(=O)N(C)C)cc3C2)c1` (centres undefined) gave an RP-LC retention time of 846 s. `Cc1ccccc1Oc1nccn2c(=O)n(CC(=O)Nc3cc(F)ccc3F)nc12` gave an RP-LC retention time of 908 s. For `CCN(CC)c1ccc(-c2noc(CN3CCSCC3)n2)cn1`, the RP-LC retention time was 651 s. Work on `CC(C)n1cnc2ccc(-c3noc(-c4cccc(C#N)c4)n3)cc21` yielded an RP-LC retention time of 761 s. For `Cc1cc(C2CCCN2C(=O)CCc2ccccc2)no1` (centres undefined), the RP-LC retention time was 760 s.
